Experimental data: US6335320B1, “Method of treating fibrotic conditions” (UCB S.A., priority 1998, dated 2002)
No end group written: not given here.

How the values were obtained:
anti-alpha SM-1 = conditions: cited from earlier work
SM cells = conditions: culture of SM cells, microinjection; cited from earlier work
α-SM actin = assay: Effect on α-SM actin biosynthesis (S35 methionine incorporation) in VSMC; format: cell-based, rat; conditions: for α-SM actin synthesis, control standardised at 100%: 2 mg/ml, VSMC, 37° C.
Experimental: In this table, the values of the control conditions were standardised at a 100% starting value (time=0 hour).

splinted wound = assay: Open splinted wound contraction model in rats; format: in vivo, rat; conditions: topical
Description: Test upon an open “splinted Wound” in Rats
In order to measure exclusively contraction, the inventors have developed the “splinted wound” model, based upon the technique of Gabbiani G. et al., J. of Exp.
The wound 2×2 cm in the back of the rat is fixed by suturing its margins to a plastic frame using suture thread (Supramid, metric 3, Braun, Emmenbrücke) on day 0. […] The peptidic product is applied on the open wound starting at the 7th day usually for 3 days and releases the suture of the frame, thus allowing an accelerated contraction which in controls reduces the area of the wound of about ⅔ within 48 hours.
We have measured morphometrically the contraction of the wound (5 rats per group) by means of planimetry (KS 400, Zeiss Vision) and studied the tissues morphologically by means of histological techniques, immunofluorescence with the α-SM actin antibody according to a method described in Gabbiani et al., J. Exp. Med. 1972 (p.15, line 8) and Darby et al. Lab. Invest. 1990 (p.1, line 24-25).
Table 3 presents the wound size (surface in cm^2) measured on day 3 as a percentage of the wound size measured on day 0.
The rats were treated with the peptidic product of example 1 at a dose of 3 mg/ml (mg of peptidic product, ml of 0.9% NaCl).

AcEEEDSTALVC (Ac-EEEDSTALVC) [amino terminal decapeptide of α-SM actin]
blocking effects on the binding of monoclonal antibody anti-alpha SM-1 (anti-alpha SM-1): blocking effects

Acetyl-glutamyl-glutamyl-glutamyl-aspartyl (Ac-EEED) [AcEEED]
incorporation of α-SM actin into stress fibers (SM cells): inhibits the incorporation of α-SM actin into stress fibers

ε-(Acetyl Glu Glu Glu Asp) Lys Arg Gln Ile Lys Ile Trp Phe Gln Asn Arg Arg Met Lys Trp Lys Lys OH [example 1, ε-(AcEEED)-K-(pAntp[43-58])]
α-SM actin synthesis, control standardised at 100% (α-SM actin; Experiment 1, 20 hours): 72%
α-SM actin synthesis, control standardised at 100% (α-SM actin; Experiment 2, 20 hours): 56%
α-SM actin synthesis, control standardised at 100% (α-SM actin; Experiment 3, 20 hours): 44%
α-SM actin synthesis, control standardised at 100% (α-SM actin; Experiment 4, 20 hours): 48%
α-SM actin synthesis, control standardised at 100% (α-SM actin; Mean of 4 experiments, 20 hours): 55%
decrease of the α-SM actin synthesis compared to control conditions (α-SM actin; mean value for the 4 experiments, 2 mg/ml culture medium): 55%
contractile activity of the wound (splinted wound; 3 mg/ml): decrease in contractile activity
Wound surface: wound size on day 3 as a percentage of the wound size on day 0 (splinted wound; 3 mg/ml in 0.9% NaCl, 5 rats per group): 48.42 ± 2.02%
